Assay results reported in ChEMBL document CHEMBL1130359, “In vivo immunosuppressive activity of some cyclolignans” (Bioorg Med Chem Lett, 1997).
≈ marks a conversion by molar mass, not a printed value.

Key:
[1] = test system: Mus musculus; experiment: Tested in vivo for immunosuppressive activity in mouse using graft vs. Host rejection technique(GVHR); weight change at a dose of 25.0 mg/kg; type: functional
[2] = test system: Mus musculus; experiment: Tested in vivo for immunosuppressive activity in mouse using allogenic skin grafting technique(SG); mean graft survival at a dose of 25.0 mg/kg; type: functional
[3] = test system: Mus musculus; experiment: Tested in vivo for immunosuppressive activity in mouse using allogenic skin grafting technique(SG); graft survival relative to cyclophosphamide at a dose of 25.0 mg/kg; type: functional
[4] = Tested in vitro for cytotoxicity against […](LcV) in cells; type: functional
[5] = Non-cytotoxic IMS activity (ratio LcV/MLR) was determined; type: functional
[6] = species: Mus musculus; experiment: Tested for immunosuppressive activity in mouse using allogenic MLR method; type: functional, organism-based

| SMILES | IC50 [6] [µg/mL] | Weight change [1] [%] | Mean graft survival [2] [days] | graft survival [3] [days] | Cytotoxicity [4] [µg/mL] | Ratio [5] |
| --- | --- | --- | --- | --- | --- | --- |
| C/C=C/C[C@@H](C)[C@@H](O)[C@H]1C(=O)N[C@@H](CC)C(=O)N(C)CC(=O)N(C)[C@@H](CC(C)C)C(=O)N[C@@H](C(C)C)C(=O)N(C)[C@@H](CC(C)C)C(=O)N[C@@H](C)C(=O)N[C@H](C)C(=O)N(C)[C@@H](CC(C)C)C(=O)N(C)[C@@H](CC(C)C)C(=O)N(C)[C@@H](C(C)C)C(=O)N1C [CYCLOSPORINE] |  | 2.7 | 9.8 | 1 |  |  |
| COc1cc([C@H]2C3=C(COC3=O)Cc3cc(OC(C)=O)c(OC(C)=O)cc32)cc(OC)c1OC | 0.366 (≈ 0.781 µM) |  |  |  | >28.5 | >78 |
| COc1cc([C@H]2C3=C(COC3=O)Cc3cc4c(cc32)OCO4)cc(OC)c1OC | < 0.00855 |  |  |  | >28.5 | >3333 |

The next lines start with results.

| IC50 [6] [µg/mL] | SMILES | Weight change [1] [%] | Mean graft survival [2] [days] | graft survival [3] [days] | Cytotoxicity [4] [µg/mL] | Ratio [5] |
| --- | --- | --- | --- | --- | --- | --- |
| 0.427 (≈ 0.808 µM) | COc1cc([C@@H]2c3cc(OC(C)=O)c(OC(C)=O)cc3[C@@H](OC(C)=O)[C@H]3COC(=O)[C@H]23)cc(OC)c1OC |  |  |  | >28.5 | >67 |
| 0.0607 (≈ 0.115 µM) | COc1cc([C@@H]2c3cc(OC(C)=O)c(OC(C)=O)cc3[C@H](OC(C)=O)[C@H]3COC(=O)[C@H]23)cc(OC)c1OC |  |  |  | >26 | >428 |
